Patent US6780853B1, “Neuroactive steroids of the androstane and pregnane series” (priority 1995, dated 2004)
Marks after values point to notes of the source that are not given here.

Tests used:
Progesterone Receptors = assay: Inhibition of 3H-Progesterone Binding to the Bovine Uteral Progesterone Receptors; conditions: competitor 10^−6M; 3H-progesterone 0.15 nM
[1] = molecular target: T1, Mineralocorticoid Receptors (Rattus norvegicus, UniProt P22199); assay: Inhibition of 3H-Aldosterone Binding to Hippocampal Mineralocorticoid Receptors; conditions: competitor 10^−6M; 3 nM 3H-aldosterone, RU28362 0.5 μM
T1 construct: To isolate the mineralocorticoid receptor, brain cytosol fractions were prepared; from tissue; host or cells: brain (hippocampal) cytosol of adrenalectomized rats
T1 sequence (P22199 1-981): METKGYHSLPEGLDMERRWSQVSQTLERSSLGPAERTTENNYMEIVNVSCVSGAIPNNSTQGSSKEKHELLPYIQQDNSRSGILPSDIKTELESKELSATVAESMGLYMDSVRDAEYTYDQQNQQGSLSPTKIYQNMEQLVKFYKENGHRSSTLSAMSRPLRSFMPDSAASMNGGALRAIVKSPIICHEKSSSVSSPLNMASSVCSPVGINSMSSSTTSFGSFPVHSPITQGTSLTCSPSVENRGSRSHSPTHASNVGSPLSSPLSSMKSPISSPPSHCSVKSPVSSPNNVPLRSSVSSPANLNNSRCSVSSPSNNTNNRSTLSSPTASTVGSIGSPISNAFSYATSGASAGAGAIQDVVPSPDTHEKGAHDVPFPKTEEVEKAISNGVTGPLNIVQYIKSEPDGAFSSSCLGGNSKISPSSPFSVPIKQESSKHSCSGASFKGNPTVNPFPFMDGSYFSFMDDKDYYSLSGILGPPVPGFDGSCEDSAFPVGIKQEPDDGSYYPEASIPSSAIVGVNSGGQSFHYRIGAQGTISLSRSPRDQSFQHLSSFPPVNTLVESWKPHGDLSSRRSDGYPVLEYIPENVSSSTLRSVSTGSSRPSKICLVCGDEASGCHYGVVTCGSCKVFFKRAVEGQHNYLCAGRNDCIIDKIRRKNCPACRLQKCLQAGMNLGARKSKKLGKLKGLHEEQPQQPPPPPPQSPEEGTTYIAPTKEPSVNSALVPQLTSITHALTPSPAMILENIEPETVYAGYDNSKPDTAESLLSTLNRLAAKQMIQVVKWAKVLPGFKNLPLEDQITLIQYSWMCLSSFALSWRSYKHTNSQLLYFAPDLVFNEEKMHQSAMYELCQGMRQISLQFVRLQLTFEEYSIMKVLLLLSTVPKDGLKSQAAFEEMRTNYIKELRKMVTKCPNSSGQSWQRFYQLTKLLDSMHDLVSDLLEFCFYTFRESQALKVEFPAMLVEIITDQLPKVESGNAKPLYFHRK
Experimental: (§1) Various hormonal activities of representative neuroactive steroids were further studied through testing their potential estrogenic, mineralocorticoid and glucocorticoid activities. These activities were analyzed by monitoring the ability of the compounds to inhibit binding of the steroid hormones to their respective hormone receptors.
In Table 4, rats were adrenalectornized 3 days prior to sacrifice.

Estrogen Receptors = molecular target: T2, Estrogen Receptors (Bos taurus, UniProt P49884); assay: Inhibition of 3H-Estradiol Binding to Bovine Uteral Estrogen Receptors; conditions: competitor 10^−6M; 3H-estradiol 0.15 nM
T2 construct: from tissue; host or cells: bovine uterus cytosol
T2 sequence (P49884 1-596): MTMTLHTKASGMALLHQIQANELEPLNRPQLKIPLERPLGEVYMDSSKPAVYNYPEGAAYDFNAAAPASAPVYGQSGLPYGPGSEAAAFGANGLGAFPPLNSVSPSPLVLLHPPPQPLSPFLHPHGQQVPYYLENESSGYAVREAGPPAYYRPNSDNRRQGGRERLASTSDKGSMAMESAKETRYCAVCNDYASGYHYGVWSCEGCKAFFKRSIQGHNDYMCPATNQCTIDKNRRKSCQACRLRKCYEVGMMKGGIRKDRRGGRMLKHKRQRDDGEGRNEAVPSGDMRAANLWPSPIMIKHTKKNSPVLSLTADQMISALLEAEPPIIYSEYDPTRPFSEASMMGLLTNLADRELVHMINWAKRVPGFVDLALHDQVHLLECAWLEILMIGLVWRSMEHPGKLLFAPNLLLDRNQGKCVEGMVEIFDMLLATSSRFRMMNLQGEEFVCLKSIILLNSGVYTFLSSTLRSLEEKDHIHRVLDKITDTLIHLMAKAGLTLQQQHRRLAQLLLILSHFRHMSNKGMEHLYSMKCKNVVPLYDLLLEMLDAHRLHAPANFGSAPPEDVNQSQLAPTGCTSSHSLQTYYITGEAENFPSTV
Experimental: as §1

punished responding = assay: Geller-Seifter conflict test; type: in vivo, Sprague-Dawley rats
Description: This animal model of human anxiety utilizes a conditioned state of conflict in rats to ascertain the anxiolytic properties of drugs. Rats are conditioned to bar press for positive reinforcement under two schedules of behavior (Geller and Seifter, Psychopharmacologia 1:482-492 (1960)). The first includes bar pressing under a […] schedule without punishment. The second component is a fixed ratio schedule with each bar press resulting in a positive reinforcement and a punishment The punished component produces a state of conflict within the animal. […] An anxiolytic response would increase the punished responding without affecting the unpunished responding.
Male albino Sprague-Dawley rats (Charles River Labs, Wilmington, Mass.) weighing 250-300 g were used for conflict experiments and were kept on a restricted diet of Purina Lab Chow food pellets with water available at all times to maintain body weight at 85% of their free-feeding young adult levels. Rats were housed individually under a 12-hour light dark cycle with lights on from 0700-1900.
The ant-anxiety (punishment-lessening) and response depressant effects of compounds of the present invention were measured in rats by the conflict test of Geller and Seifter. In this 63-min test hungry rats perform a lever-press response to obtain a sweetened milk reward. The reinforcement schedule consists of punishment and nonpunishment components, alternating approximately every 15 min. Rats were trained in test chambers (Coulbourn instruments) with a lever mounted in one wall, a small dipper that delivered the 0.1-mL milk reward (1 part Eagle condensed milk:2 parts water), and a metal grid floor through which the foot-shock punishment was administered. A DEC PDP 11/73 minicomputer running SKED (State Systems) was used for programming and recording.
Rats initially learned to respond on a continuous reinforcement schedule and progressed rapidly to 30-sec, 1-min, and 2-min variable interval (VI) schedules. On the continuous reinforcement schedule, rats received milk reward following every lever press; on the VI schedules, milk rewards were available at infrequent and variable intervals, eventually at an average of once every 2 min. Four 3-min “conflict” periods were then introduced on the unpunished VI baseline; the first started after 3 min of VI performance and the others were alternated between 12-min periods of VI responding. During conflict periods, which were signalled by the presentation of a light and a tone, the continuous reinforcement schedule was again in force and each lever press delivered both a milk reward and a brief […] foot-shock punishment. […]

[2] = molecular target: GABA receptor complex (GRC); assay: [35S]TBPS binding in rat cerebral cortex P2 homogenate; conditions: for IC50: concentration to inhibit 50% of control [35S]TBPS binding, 2 nM [35S]TBPS; for IMAX (maximum inhibition): maximum inhibition of [35S]TBPS binding
In short: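 Male Sprague-Dawley rat cortical P2 homogenate (0.5 mg protein) incubated with 2 nM [35S]TBPS in 50 mM Na/K phosphate pH 7.4, 200 mM NaCl, with GABA plus (+)bicuculline, 90 min at 25 °C. Filter-bound radioactivity counted; non-specific binding with […]; IC50 and maximal inhibition by nonlinear regression.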

[3] = test system: metrazol induced convulsions; assay: Antimetrazol activity in mice; type: in vivo; conditions: 10 mg/kg, 50% hpbcd; for PTZ % Protected: i.p., 10 min; for % Protected: IP, 10 min before metrazol 85 mg/kg
In short: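 Mice dosed with test compounds at various doses 10 minutes before metrazol (85 mg/kg) injection. Each animal observed for 30 minutes, recording time to onset of myoclonus (forelimb clonic activity).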

[4] = test system: maximal electroshock tonic seizure; assay: Maximal electroshock test; type: in vivo, mice; conditions: 20 mg/kg, i.p., 10 min, 50% hpbcd
Description: The anticonvulsant tests are similar to that described above.

[5] = test system: time spent on the open-arms; assay: Elevated plus-maze test; type: in vivo, N.I.H. Swiss-Webster mice; conditions: IP, 50% hpbcd, 10 mg/kg
loss-of-righting reflex = assay: Anesthetic activity, loss-of-righting reflex; type: in vivo, mice; conditions: iv, 10 mg/kg
Experimental: The compounds of and used in the invention can also be used for anesthetic indications at high doses. However, the preferred route of administration to induce anesthesia is intravenous (i.v.) administration. In animals, a drug's anesthetic properties is measured by the drug's ability to produce a loss-of-righting reflex. The loss-of-righting reflex is defined as the inability of an animal to right itself within 30 seconds when placed on its back. Mice were administered drug i.v. in the lateral tail vein. Following administration, mice were placed on their backs and observed for loss-of-righting reflex.

[6] = data from Swinyard & Woodhead 1982; cited from earlier work

Compound: 5α-pregnan-3β,20-trimethyl-3α,20-diol
- % of Inhibition (Progesterone Receptors): 8%
- % of Inhibition [1]: 0%
- % of Inhibition (Estrogen Receptors): 0%

Compound: CCOC[C@@]1(O)CC[C@@]2(C)[C@@H](CC[C@@H]3[C@@H]2CC[C@]2(C)[C@@H](C(C)=O)CC[C@@H]32)C1 [3α-Hydroxy-3β-ethoxymethyl-5α-pregnan-20-one]
- Geller/Seifter (% or control) (punished responding; IP, 50% hpbcd, 40 mg/kg): 3743 % or control

Compound: CC(=O)C1CCC2C3CCC4CC(O)(C(F)(F)F)CCC4(C)C3C(N(C)C)CC12C (stereo not drawn) [11α-N,N-Dimethylamino-3α-hydroxy-3β-trifluoromethyl-5β-pregnan-20-one]
- Geller/Seifter (% or control) (punished responding; IP, citrate, 20 mg/kg): 145 % or control

Compound: C#C[C@@]1(O)CC[C@@]2(C)[C@H](CC[C@@H]3[C@@H]2CC[C@]2(C)[C@@H](OC)CC[C@@H]32)C1 [3β-ethynyl-3α-hydroxy-17β-methoxy-5β-androstane]
- IC50 [2]: 0.049 µM
- IMAX (maximum inhibition) [2]: 101%
- PTZ % Protected [3]: 50^c %
- % Protected [3]: 50%
- MES % Protected [4]: 31.2^b %
- Plus-Maze (% Control), time spent on the open-arms [5]: 123 % Control
- Loss-of-Righting Reflex (%) (loss-of-righting reflex; 50% hpbcd): 50%

Compound: CO[C@H]1CC[C@H]2[C@@H]3CC[C@@H]4C[C@H](O)CC[C@]4(C)[C@H]3CC[C@]12C [3α-Hydroxy-17β-methoxy-5β-androstane]
- IC50 [2]: 0.062 µM
- IMAX (maximum inhibition) [2]: 106%
- PTZ % Protected [3]: 87.5^c %
- MES % Protected [4]: 87.5^b %
- Plus-Maze (% Control), time spent on the open-arms [5]: 115 % Control
- melting point: 151 to 156 °C

Compound: COC[C@@]1(O)CC[C@@]2(C)[C@@H](CC[C@@H]3[C@@H]2CC[C@]2(C)[C@@H](C(C)=O)CC[C@@H]32)C1 [3α-Hydroxy-3β-methoxymethyl-5α-pregnan-20-one]
- Geller/Seifter (% or control) (punished responding; IP, 50% hpbcd, 10 mg/kg): 958 % or control

Compound: C[C@H](O)[C@H]1CC[C@H]2[C@@H]3CC[C@H]4C[C@H](O)CC[C@]4(C)[C@H]3CC[C@]12C [5α-pregnan-3α,20-diol, 5α-pregnan-3α,20α-diol]
- % of Inhibition (Progesterone Receptors): 6%
- % of Inhibition [1]: 0%
- % of Inhibition (Estrogen Receptors): 0%

Compound: COCC1(O)CCC2(C)C(CCC3C2CCC2(C)C(OC)CCC32)C1 (stereo not drawn) [3α-Hydroxy-17β-methoxy-3β-methoxymethyl-5α-androstane]
- IC50 [2]: 0.064 µM
- IMAX (maximum inhibition) [2]: 100%
- PTZ % Protected [3]: 87.5^c %
- % Protected [3]: 87.5%
- MES % Protected [4]: 18.7^b %
- Plus-Maze (% Control), time spent on the open-arms [5]: 130 % Control
- Loss-of-Righting Reflex (%) (loss-of-righting reflex; 10% hpbcd): 50%

Compound: CC(O)C1CCC2C3CCC4CC(O)CCC4(C)C3CCC12C (stereo not drawn) [5β-pregnan-3α,20α-diol]
- % of Inhibition (Progesterone Receptors): 0%
- % of Inhibition [1]: 0%
- % of Inhibition (Estrogen Receptors): 8%

Compound: COC1CCC2C3CCC4CC(O)(C#Cc5ccc(C(C)=O)cc5)CCC4C3CCC12C (stereo not drawn) [3β-(4′-Acetylphenylethynyl)-3α-hydroxy-17β-methoxy-19-nor-5β-androstane]
- IC50 [2]: 0.008 µM
- IMAX (maximum inhibition) [2]: 96%
- PTZ % Protected [3]: 12.5^c %
- % Protected [3]: 31%
- MES % Protected [4]: 25^b %
- Plus-Maze (% Control), time spent on the open-arms [5]: 156 % Control
- melting point: 148 to 150 °C

Compound: CCC1(c2ccccc2)C(=O)NC(=O)NC1=O [Phenobarbital]
- ED50 RR [6]: 69 mg/kg

Compound: COCC1(O)CCC2(C)C(CCC3C2CCC2(C)C(C(=O)CSS(=O)(=O)[O-])CCC32)C1.[Na+] (stereo not drawn) [Sodium S-(3α-hydroxy-3β-methoxymethyl-5α-pregnan-20-on-21-yl)thiosulfate]
- Geller/Seifter (% or control) (punished responding; PO, water, 32 mg/kg): 4487.5 % or control

Compound: CCCC(CCC)C(=O)O [Valproate]
- ED50 RR [6]: 514 mg/kg
